Measurements published in patent publication US11377442B2, “Small molecule agonists and antagonists of NR2F6 activity” (ZANDER THERAPEUTICS, INC., priority 2016, dated 2022).
Like-named read-outs stand apart in the source and are kept apart here.

Key:
Assay type in all cases: cell-based
[1] = tested on: HEK293 pGL4; test: Firefly_pGL signal, cmpd/DMSO (pGL4 control cells); conditions: Homo sapiens
[2] = biological target: T1, NR2F6 (Homo sapiens, UniProt P10588); test: NR2F6 agonist screening, Firefly signal cmpd/DMSO
T1 construct: expressed in transfected cells; also transient transfection
T1 sequence (P10588 1-404): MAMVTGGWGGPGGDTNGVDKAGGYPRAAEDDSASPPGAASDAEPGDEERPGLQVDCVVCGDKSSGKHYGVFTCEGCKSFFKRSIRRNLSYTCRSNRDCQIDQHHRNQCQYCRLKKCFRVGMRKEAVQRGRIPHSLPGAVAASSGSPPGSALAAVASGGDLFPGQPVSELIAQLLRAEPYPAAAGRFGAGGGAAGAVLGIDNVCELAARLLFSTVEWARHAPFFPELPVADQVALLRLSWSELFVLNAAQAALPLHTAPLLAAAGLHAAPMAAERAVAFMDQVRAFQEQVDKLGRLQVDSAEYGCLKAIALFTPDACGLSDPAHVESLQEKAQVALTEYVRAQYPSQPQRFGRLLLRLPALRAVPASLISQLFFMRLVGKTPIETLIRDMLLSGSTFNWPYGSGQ

[3] = biological target: T2, NR2F6 LBD (Homo sapiens, UniProt P10588); test: NR2F6 LBD transient transfection; conditions: LBD
T2 construct: expressed in transfected cells
T2 sequence (P10588 165-393 limits assumed): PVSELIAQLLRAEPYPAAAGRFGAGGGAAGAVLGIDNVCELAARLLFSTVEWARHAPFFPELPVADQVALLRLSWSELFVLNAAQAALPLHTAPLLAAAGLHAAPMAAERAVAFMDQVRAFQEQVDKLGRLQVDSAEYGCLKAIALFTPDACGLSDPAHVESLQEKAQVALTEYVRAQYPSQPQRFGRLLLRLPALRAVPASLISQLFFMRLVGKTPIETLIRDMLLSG
Procedure: FIGS. 27A and 27B show NR2F6 and LBD transient transfection, respectively, for Compound D28. Higher concentrations were excluded due to lower signal (tox effect). FIGS. 27C and 27D show NR2F6 and LBD transient transfection at different concentrations for different compounds. 9 compounds were tested on LBD transfected cells (40, 10, 2 and 0.5 μM, 4 replicates). FIGS. 27E and 27F show toxicity of Compound D28. 9 compounds were tested for cytotoxicity on LBD transfected cells (40, 10, 2 and 0.5 μM, 4 replicates). […] Cytotoxicity normalized to DMSO is shown in FIG. 27F (0% cytotoxicity corresponds to DMSO signal, 100%—zero signal).
FIGS. 34A and 34B show NR2F6 LBD transient transfection for Compound E21. 9 compounds were tested on LBD transfected cells (40, 10, 2 and 0.5 μM, 4 replicates). FIGS. 34C and 34D show NR2F6 and LBD transient transfection at different concentrations for different compounds. 9 compounds were tested on LBD transfected cells (40, 10, 2 and 0.5 μM, 4 replicates). […] Cytotoxicity normalized to DMSO is shown in FIG. 34D (0% cytotoxicity corresponds to DMSO signal, 100%—zero signal). All compounds were tested at 5, 10, 25 and 50 uM in duplicates. Dog PBMC (1×10^6 cells/mL) were activated by 10 ng/mL PMA+500 ng/mL ionomycin. Data were normalized to controls with (100%)/without (0%) PMA+ionomycin activation.
FIGS. 39A and 39B show NR2F6 LBD transient transfection for Compound F1. 9 compounds were tested on LBD transfected cells (40, 10, 2 and 0.5 μM, 4 replicates). FIGS. 39C and 39D show toxicity of NR2F6 LBD transient transfection. 9 compounds were tested for cytotoxicity on LBD transfected cells (40, 10, 2 and 0.5 μM, 4 replicates). Tox effect causes lower signal compared to DMSO. Cytotoxicity normalized to DMSO is shown in FIG. 39D (0% cytotoxicity corresponds to DMSO signal, 100%—zero signal).

[4] = tested on: Renilla; test: Renilla signal in NR2F6 agonist screening, cmpd/DMSO; conditions: Renilla, F4
[5] = HEK293, 0.5 uM, pGL4, read-out: Firefly pGL4, cmpd/DMSO (mean)
[6] = HEK293, 2 uM, pGL4, read-out: Firefly pGL4, cmpd/DMSO (mean)
[7] = HEK293, 10 uM, pGL4, read-out: Firefly pGL4, cmpd/DMSO (mean)
[8] = HEK293, 40 uM, pGL4, read-out: Firefly pGL4, cmpd/DMSO (mean)
[9] = HEK293, pGL4, 1% FBS, 0.5 uM, read-out: Firefly, pGL4, 1% FBS, cmpd/DMSO (mean)
[10] = HEK293, pGL4, 1% FBS, 2 uM, read-out: Firefly, pGL4, 1% FBS, cmpd/DMSO (mean)
[11] = HEK293, pGL4, 1% FBS, 10 uM, read-out: Firefly, pGL4, 1% FBS, cmpd/DMSO (mean)
[12] = HEK293, pGL4, 1% FBS, 40 uM, read-out: Firefly, pGL4, 1% FBS, cmpd/DMSO (mean)
[13] = HEK293, pGL4, 10% FBS, 0.5 uM, read-out: Firefly, pGL4, 10% FBS, cmpd/DMSO (mean)
[14] = HEK293, pGL4, 10% FBS, 2 uM, read-out: Firefly, pGL4, 10% FBS, cmpd/DMSO (mean)
[15] = HEK293, pGL4, 10% FBS, 10 uM, read-out: Firefly, pGL4, 10% FBS, cmpd/DMSO (mean)
[16] = HEK293, pGL4, 10% FBS, 40 uM, read-out: Firefly, pGL4, 10% FBS, cmpd/DMSO (mean)
[17] = read-out: Renilla, F4, cmpd/DMSO (mean)
[18] = 1% FBS, read-out: Renilla, F4, 1% FBS, cmpd/DMSO (mean)
[19] = 10% FBS, read-out: Renilla, F4, 10% FBS, cmpd/DMSO (mean)

COc1ccc(CCN[C@H]2CS(=O)(=O)C[C@@H]2S(=O)(=O)c2ccc(Cl)cc2)cc1OC [Compound D129]
fold induction at 0.5 µM [1, 5]: 1.4 | fold induction at 2 µM [1, 6]: 1.5 | fold induction at 10 µM [1, 7]: 2.9 | fold induction at 40 µM [1, 8]: 1.6 | fold induction at 0.5 µM [1, 9]: 1.4 | fold induction at 2 µM [1, 10]: 1.2 | fold induction at 10 µM [1, 11]: 1.9 | fold induction at 40 µM [1, 12]: 1.6 | fold induction at 0.5 µM [1, 13]: 1 | fold induction at 2 µM [1, 14]: 1 | fold induction at 10 µM [1, 15]: 2 | fold induction at 40 µM [1, 16]: 2.2 | Firefly F4, cmpd/DMSO (mean) ([2]; 0.5 uM): 1.2 | Firefly F4, cmpd/DMSO (mean) ([2]; 2 uM): 2.0 | Firefly F4, cmpd/DMSO (mean) ([2]; 10 uM): 4.3 | Firefly F4, cmpd/DMSO (mean) ([2]; 40 uM): 3.4 | F4, Firefly/Renilla for S/B(F4) > 3 ([2]; 10% FBS, 40 uM): 2.6 | Firefly, F4/pGL4 for S/B(F4) > 3 ([2]; 10% FBS, 40 uM): 1.8 | Firefly, F4, 1% FBS, cmpd/DMSO (mean) ([2]; 1% FBS, 0.5 uM): 0.9 | Firefly, F4, 1% FBS, cmpd/DMSO (mean) ([2]; 1% FBS, 2 uM): 1.1 | Firefly, F4, 1% FBS, cmpd/DMSO (mean) ([2]; 1% FBS, 10 uM): 2.9 | Firefly, F4, 1% FBS, cmpd/DMSO (mean) ([2]; 1% FBS, 40 uM): 1.4 | Firefly, F4, 10% FBS, cmpd/DMSO (mean) ([2]; 10% FBS, 0.5 uM): 1.1 | Firefly, F4, 10% FBS, cmpd/DMSO (mean) ([2]; 10% FBS, 2 uM): 0.8 | Firefly, F4, 10% FBS, cmpd/DMSO (mean) ([2]; 10% FBS, 10 uM): 1.9 | Firefly, F4, 10% FBS, cmpd/DMSO (mean) ([2]; 10% FBS, 40 uM): 4.1 | Firefly LBD, cmpd/DMSO (mean) ([3]; 0.5 uM): 1.1 | Firefly LBD, cmpd/DMSO (mean) ([3]; 2 uM): 1.7 | Firefly LBD, cmpd/DMSO (mean) ([3]; 10 uM): 2.7 | Firefly LBD, cmpd/DMSO (mean) ([3]; 40 uM): 2.4 | fold induction at 0.5 µM [4, 17]: 1.1 | fold induction at 2 µM [4, 17]: 1.2 | fold induction at 10 µM [4, 17]: 1.4 | fold induction at 40 µM [4, 17]: 1.6 | fold induction at 0.5 µM [4, 18]: 1.1 | fold induction at 2 µM [4, 18]: 1.1 | fold induction at 10 µM [4, 18]: 1.6 | fold induction at 40 µM [4, 18]: 1.5 | fold induction at 0.5 µM [4, 19]: 1 | fold induction at 2 µM [4, 19]: 0.9 | fold induction at 10 µM [4, 19]: 1.1 | fold induction at 40 µM [4, 19]: 1.5

CC(C)CN[C@H]1CS(=O)(=O)C[C@@H]1S(=O)(=O)c1ccc(Cl)cc1 [Compound D120]
fold induction at 0.5 µM [1, 5]: 1.4 | fold induction at 2 µM [1, 6]: 1.5 | fold induction at 10 µM [1, 7]: 3.7 | fold induction at 40 µM [1, 8]: 0.8 | fold induction at 0.5 µM [1, 9]: 1.5 | fold induction at 2 µM [1, 10]: 1.5 | fold induction at 10 µM [1, 11]: 2.8 | fold induction at 40 µM [1, 12]: 0.9 | fold induction at 0.5 µM [1, 13]: 1.1 | fold induction at 2 µM [1, 14]: 1.7 | fold induction at 10 µM [1, 15]: 2 | fold induction at 40 µM [1, 16]: 0.7 | Firefly F4, cmpd/DMSO (mean) ([2]; 0.5 uM): 1.3 | Firefly F4, cmpd/DMSO (mean) ([2]; 2 uM): 1.5 | Firefly F4, cmpd/DMSO (mean) ([2]; 10 uM): 5.1 | Firefly F4, cmpd/DMSO (mean) ([2]; 40 uM): 2.2 | F4, Firefly/Renilla for S/B(F4) > 3 ([2]; 1% FBS, 10 uM): 2.3 | Firefly, F4/pGL4 for S/B(F4) > 3 ([2]; 1% FBS, 10 uM): 1.7 | F4, Firefly/Renilla for S/B(F4) > 3 ([2]; 10% FBS, 10 uM): 2.1 | Firefly, F4/pGL4 for S/B(F4) > 3 ([2]; 10% FBS, 10 uM): 1.8 | Firefly, F4, 1% FBS, cmpd/DMSO (mean) ([2]; 1% FBS, 0.5 uM): 0.8 | Firefly, F4, 1% FBS, cmpd/DMSO (mean) ([2]; 1% FBS, 2 uM): 1.2 | Firefly, F4, 1% FBS, cmpd/DMSO (mean) ([2]; 1% FBS, 10 uM): 4.7 | Firefly, F4, 1% FBS, cmpd/DMSO (mean) ([2]; 1% FBS, 40 uM): 0.2 | Firefly, F4, 10% FBS, cmpd/DMSO (mean) ([2]; 10% FBS, 0.5 uM): 1.0 | Firefly, F4, 10% FBS, cmpd/DMSO (mean) ([2]; 10% FBS, 2 uM): 1.2 | Firefly, F4, 10% FBS, cmpd/DMSO (mean) ([2]; 10% FBS, 10 uM): 3.6 | Firefly, F4, 10% FBS, cmpd/DMSO (mean) ([2]; 10% FBS, 40 uM): 1.7 | Firefly LBD, cmpd/DMSO (mean) ([3]; 0.5 uM): 1.1 | Firefly LBD, cmpd/DMSO (mean) ([3]; 2 uM): 1.7 | Firefly LBD, cmpd/DMSO (mean) ([3]; 10 uM): 4.1 | Firefly LBD, cmpd/DMSO (mean) ([3]; 40 uM): 0.8 | fold induction at 0.5 µM [4, 17]: 1 | fold induction at 2 µM [4, 17]: 1.2 | fold induction at 10 µM [4, 17]: 1.7 | fold induction at 40 µM [4, 17]: 1.6 | fold induction at 0.5 µM [4, 18]: 1 | fold induction at 2 µM [4, 18]: 1.3 | fold induction at 10 µM [4, 18]: 2.1 | fold induction at 40 µM [4, 18]: 0.6 | fold induction at 0.5 µM [4, 19]: 1 | fold induction at 2 µM [4, 19]: 1.1 | fold induction at 10 µM [4, 19]: 1.7 | fold induction at 40 µM [4, 19]: 1.5
